Key:
[1] = tested on: CASOB (Sicklepod); experiment: Postemergence herbicidal evaluation; type: in vivo, Cassia obtusifolia; details: postemergence
How it was run: (§1)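 Rate range approx. 0.0156–0.500 kg/ha. Foliar application at 40 psi to ~2-week seedlings; surfactant 0.5% TWEEN 20 in 50/50 acetone/water. Evaluation 4–5 wk post-treatment by 0–9 visual injury score, means of replicate tests.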

[2] = tested on: CHEAL (Lambsquarters, Common); experiment: Postemergence herbicidal evaluation; type: in vivo, Chenopodium album; details: postemergence
How it was run: as §1

[3] = tested on: ECHCG (Barnyardgrass); experiment: Postemergence herbicidal evaluation; type: in vivo, Echinochloa crus-galli; details: postemergence
How it was run: as §1

[4] = tested on: ORYSAT (Rice, Tebonnet); experiment: Postemergence herbicidal evaluation; type: in vivo, Oryza sativa, (L.) Tebonnet; details: postemergence
How it was run: as §1

[5] = tested on: GALAP (Galium); experiment: Preemergence herbicidal evaluation; type: in vivo, Galium aparine; details: rated 4-5 weeks after treatment
How it was run: (§2)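 Rating at 4–5 wk post-spray on a 0–9 visual scale vs control. Application: aqueous acetone, ~0.0156–0.500 kg/ha, to soil surface after seeding, preemergence.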

[6] = tested on: SETVI (Foxtail, Green); experiment: Preemergence herbicidal evaluation; type: in vivo, Setaria viridis; details: rated 4-5 weeks after treatment
How it was run: as §2

[7] = tested on: GLXMAW (Soybean, Williams); experiment: Preemergence herbicidal evaluation; type: in vivo, Glycine max, (L.) Merr. cv Williams; details: rated 4-5 weeks after treatment
How it was run: as §2

[8] = tested on: ORYSAT (Rice, Tebonnet); experiment: Preemergence herbicidal evaluation; type: in vivo, Oryza sativa, (L.) Tebonnet; details: rated 4-5 weeks after treatment
How it was run: as §2

[9] = tested on: TRZAWR (Wheat, Winter, cv Riband); experiment: Preemergence herbicidal evaluation; type: in vivo, Triticum aestivum; details: rated 4-5 weeks after treatment
How it was run: as §2

[10] = tested on: ZEAMX (Corn, Field); experiment: Preemergence herbicidal evaluation; type: in vivo, Zea mays; details: rated 4-5 weeks after treatment
How it was run: as §2

[11] = tested on: CYPIR (Rice Flatsedge); experiment: Preemergence weed control under flooded paddy conditions; type: in vivo, Cyperus iria; details: rated 3-4 weeks after treatment
How it was run: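 Silt loam, seeds in top 0.5 cm; flood held 1.5-3 cm; test cpd as acetone/water 50/50 into flood water, ~0.0313-0.500 kg/ha a.i.; greenhouse 3-4 wk; visual 0-9 score vs control.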

[12] = tested on: MOOVA (Monochoria); experiment: as above; type: in vivo, Monochoria vaginalis; details: rated 3-4 weeks after treatment
How it was run: (§3)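 Seeds or propagules sown in silt loam kept flooded 1.5-3 cm; compounds in 50/50 acetone/water pipetted into flood water at about 0.0313 to 0.500 kg/ha. Greenhouse; visual 0-9 rating versus untreated control 3-4 weeks after treatment.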

[13] = tested on: SAGPY (Arrowhead (Pygmaea)); experiment: as above; type: in vivo, Sagittaria pygmaea; details: rated 3-4 weeks after treatment
How it was run: as §3

[14] = rate 0.0313 kg/ha, rating scale 0-9
[15] = rate 0.0625 kg/ha, rating scale 0-9
[16] = rate 0.1250 kg/ha, rating scale 0-9
[17] = rate 0.2500 kg/ha, rating scale 0-9

## CCOC(=O)CN1C(=O)C(COC)SC1=Nc1cc(-n2c(=O)cc(C(F)(F)F)n(C)c2=O)c(F)cc1Cl (stereo not drawn) [Compound 156, Ethyl 2-{{2-chloro-5-[3,6-dihydro-3-methyl-2,6-dioxo-4-(trifluoromethyl)-1(2H)-pyrimidinyl]-4-fluorophenyl}imino}-5-(methoxymethyl)-4-oxo-3-thiazolidine-acetate]
[1]; rate 0.0156 kg/ha
  Herbicidal rating CASOB: 0.0
[1]; rate 0.0313 kg/ha
  Herbicidal rating CASOB: 0.0
[1]; rate 0.0625 kg/ha
  Herbicidal rating CASOB: 1.0
[2]; rate 0.0156 kg/ha
  Herbicidal rating CHEAL: 9.0
[2]; rate 0.0313 kg/ha
  Herbicidal rating CHEAL: 9.0
[2]; rate 0.0625 kg/ha
  Herbicidal rating CHEAL: 9.0
[3]; rate 0.0156 kg/ha
  Herbicidal rating ECHCG: 0.0
[3]; rate 0.0313 kg/ha
  Herbicidal rating ECHCG: 0.0
[3]; rate 0.0625 kg/ha
  Herbicidal rating ECHCG: 0.0
[4]; rate 0.0156 kg/ha
  Herbicidal rating ORYSAT: 0.5
[4]; rate 0.0313 kg/ha
  Herbicidal rating ORYSAT: 0.5
[4]; rate 0.0625 kg/ha
  Herbicidal rating ORYSAT: 2.0
[5]; [14]
  Preemergence herbicidal rating GALAP: 0.0
[5]; [15]
  Preemergence herbicidal rating GALAP: 4.0
[5]; [16]
  Preemergence herbicidal rating GALAP: 4.0
[5]; [17]
  Preemergence herbicidal rating GALAP: 9.0
[6]; [14]
  Preemergence herbicidal rating SETVI: 0.0
[6]; [15]
  Preemergence herbicidal rating SETVI: 2.0
[6]; [16]
  Preemergence herbicidal rating SETVI: 2.0
[6]; [17]
  Preemergence herbicidal rating SETVI: 9.0
[7]; [14]
  Preemergence herbicidal rating GLXMAW: 0.0
[7]; [15]
  Preemergence herbicidal rating GLXMAW: 0.0
[7]; [16]
  Preemergence herbicidal rating GLXMAW: 0.0
[7]; [17]
  Preemergence herbicidal rating GLXMAW: 7.0
[8]; [14]
  Preemergence herbicidal rating ORYSAT: 0.0
[8]; [15]
  Preemergence herbicidal rating ORYSAT: 0.0
[8]; [16]
  Preemergence herbicidal rating ORYSAT: 0.0
[8]; [17]
  Preemergence herbicidal rating ORYSAT: 3.0
[9]; [14]
  Preemergence herbicidal rating TRZAWR: 0.0
[9]; [15]
  Preemergence herbicidal rating TRZAWR: 0.0
[9]; [16]
  Preemergence herbicidal rating TRZAWR: 0.0
[9]; [17]
  Preemergence herbicidal rating TRZAWR: 3.0
[10]; [14]
  Preemergence herbicidal rating ZEAMX: 0.0
[10]; [15]
  Preemergence herbicidal rating ZEAMX: 1.0
[10]; [16]
  Preemergence herbicidal rating ZEAMX: 2.0
[10]; [17]
  Preemergence herbicidal rating ZEAMX: 5.0
[11]; 0.2500 kg/ha
  herbicidal effect rating, CYPIR: 0.0
[12]; 0.2500 kg/ha
  herbicidal effect rating, MOOVA: 0.0
[13]; 0.2500 kg/ha
  herbicidal effect rating, SAGPY: 0.0

## CCN1C(=O)CSC1=Nc1cc(-n2c(=O)cc(C(F)(F)F)n(C)c2=O)c(F)cc1Cl [Compound 159, 3-{4-Chloro-5-[(3-ethyl-4-oxo-2-thiazolidinyl-idene)amino]-2-fluorophenyl}-1-methyl-6-(trifluoromethyl)-2,4(1H,3H)-pyrimidinedione]
[1]; rate 0.0156 kg/ha
  Herbicidal rating CASOB: 0.0
[1]; rate 0.0313 kg/ha
  Herbicidal rating CASOB: 1.0
[1]; rate 0.0625 kg/ha
  Herbicidal rating CASOB: 7.0
[2]; rate 0.0156 kg/ha
  Herbicidal rating CHEAL: 3.0
[2]; rate 0.0313 kg/ha
  Herbicidal rating CHEAL: 4.0
[2]; rate 0.0625 kg/ha
  Herbicidal rating CHEAL: 5.0
[3]; rate 0.0156 kg/ha
  Herbicidal rating ECHCG: 2.0
[3]; rate 0.0313 kg/ha
  Herbicidal rating ECHCG: 3.0
[3]; rate 0.0625 kg/ha
  Herbicidal rating ECHCG: 3.0
[4]; rate 0.0156 kg/ha
  Herbicidal rating ORYSAT: 1.5
[4]; rate 0.0313 kg/ha
  Herbicidal rating ORYSAT: 2.0
[4]; rate 0.0625 kg/ha
  Herbicidal rating ORYSAT: 2.0
[5]; 0.0156 kg/ha
  Preemergence herbicidal rating GALAP: 0.0
[5]; 0.0313 kg/ha
  Preemergence herbicidal rating GALAP: 0.0
[5]; 0.0625 kg/ha
  Preemergence herbicidal rating GALAP: 1.0
[5]; 0.1250 kg/ha
  Preemergence herbicidal rating GALAP: 5.0
[5]; 0.2500 kg/ha
  Preemergence herbicidal rating GALAP: 5.0
[6]; 0.0156 kg/ha
  Preemergence herbicidal rating SETVI: 1.0
[6]; 0.0313 kg/ha
  Preemergence herbicidal rating SETVI: 8.0
[6]; 0.0625 kg/ha
  Preemergence herbicidal rating SETVI: 7.0
[6]; 0.1250 kg/ha
  Preemergence herbicidal rating SETVI: 9.0
[6]; 0.2500 kg/ha
  Preemergence herbicidal rating SETVI: 7.0
[7]; 0.0156 kg/ha
  Preemergence herbicidal rating GLXMAW: 1.0
[7]; 0.0313 kg/ha
  Preemergence herbicidal rating GLXMAW: 0.0
[7]; 0.0625 kg/ha
  Preemergence herbicidal rating GLXMAW: 1.0
[7]; 0.1250 kg/ha
  Preemergence herbicidal rating GLXMAW: 2.0
[7]; 0.2500 kg/ha
  Preemergence herbicidal rating GLXMAW: 3.0
[8]; 0.0156 kg/ha
  Preemergence herbicidal rating ORYSAT: 0.0
[8]; 0.0313 kg/ha
  Preemergence herbicidal rating ORYSAT: 0.0
[8]; 0.0625 kg/ha
  Preemergence herbicidal rating ORYSAT: 0.0
[8]; 0.1250 kg/ha
  Preemergence herbicidal rating ORYSAT: 1.0
[8]; 0.2500 kg/ha
  Preemergence herbicidal rating ORYSAT: 2.0
[9]; 0.0156 kg/ha
  Preemergence herbicidal rating TRZAWR: 0.0
[9]; 0.0313 kg/ha
  Preemergence herbicidal rating TRZAWR: 0.0
[9]; 0.0625 kg/ha
  Preemergence herbicidal rating TRZAWR: 0.0
[9]; 0.1250 kg/ha
  Preemergence herbicidal rating TRZAWR: 1.0
[9]; 0.2500 kg/ha
  Preemergence herbicidal rating TRZAWR: 3.0
[10]; 0.0156 kg/ha
  Preemergence herbicidal rating ZEAMX: 0.0
[10]; 0.0313 kg/ha
  Preemergence herbicidal rating ZEAMX: 0.0
[10]; 0.0625 kg/ha
  Preemergence herbicidal rating ZEAMX: 1.0
[10]; 0.1250 kg/ha
  Preemergence herbicidal rating ZEAMX: 2.0
[10]; 0.2500 kg/ha
  Preemergence herbicidal rating ZEAMX: 7.0
[11]; 0.0313 kg/ha
  herbicidal effect rating, CYPIR: 0.0
[11]; 0.0625 kg/ha
  herbicidal effect rating, CYPIR: 0.0
[11]; 0.1250 kg/ha
  herbicidal effect rating, CYPIR: 3.0
[11]; 0.2500 kg/ha
  herbicidal effect rating, CYPIR: 4.0
[12]; 0.0313 kg/ha
  herbicidal effect rating, MOOVA: 0.0
[12]; 0.0625 kg/ha
  herbicidal effect rating, MOOVA: 3.0
[12]; 0.1250 kg/ha
  herbicidal effect rating, MOOVA: 6.0
[12]; 0.2500 kg/ha
  herbicidal effect rating, MOOVA: 9.0
[13]; 0.0313 kg/ha
  herbicidal effect rating, SAGPY: 0.0
[13]; 0.0625 kg/ha
  herbicidal effect rating, SAGPY: 3.0
[13]; 0.1250 kg/ha
  herbicidal effect rating, SAGPY: 3.0
[13]; 0.2500 kg/ha
  herbicidal effect rating, SAGPY: 6.0

Reference: patent US20020137929A1, “1 - (3-heterocyclylphenyl) isothiourea, -isourea, -guanidine and -amidine herbicidal agents” (Intellectual Property Department, BASF Aktiengesellschaft, priority 1998, published 2002)
